Patent US8343760B2, “p53 activator peptides” (University of Maryland, Baltimore, priority 2008, dated 2013)
Where a SMILES comes first, the peptide text is derived from it. Bridges are numbered along the chain shown (N, C = ends).

Experiments:
synMDM2 = target: T1, synMDM2 (Homo sapiens, UniProt Q00987); assay: Trp fluorescence spectroscopy on addition of synMDM2; assay type: binding
T1 construct: synthetic MDM2—comprising amino acids 25-109 of the full length MDM2 protein; made in house; host or cells: chemical synthesis (no expression host)
T1 sequence (Q00987 25-109): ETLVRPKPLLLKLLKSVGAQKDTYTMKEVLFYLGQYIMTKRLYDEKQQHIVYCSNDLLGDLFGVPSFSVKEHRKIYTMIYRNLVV
From the text: Stoppin-1 was characterized using CD and fluorescence spectroscopy. […] The CD results are entirely consistent with the known structural features of BmBKTx1. As is the case with ^(15-29)p53, the only Trp residue engineered into stoppin-1 is fully solvent exposed in aqueous solution (buffer) as evidenced by the Trp fluorescence maximum (356 nm).
Stoppin-1 was derivatived by making five additional substitutions in its C-terminal region, resulting in a heavily cationic new peptide termed stoppin-2 of the following amino acid sequence: […] (SEQ ID NO:2). Specifically, Ser^18, Ser^19, Ile^23, Asn^24, and Ser^25 (BmBKTx1 numbering) were replaced with Arg, generating a miniprotein with eight cationic residues (including three existing Lys residues) clustered in the C-terminal β-hairpin region. Stoppin-2 was then chemically synthesized and oxidatively folded using procedures previously described herein. The correct folding of stoppin-2 was verified by disulfide mapping using trypsin/CNBr fragmentation coupled with LC-MS analysis. The interaction of stoppin-2 with MDM2/MDMX was characterized using fluorescence spectroscopy.

p53 mutated SW480 cells = assay: Tumor cell killing, MTS OD and Trypan blue cell count, SW480; conditions: SW480, added daily for three days
Protocol: (§1) Nutlin-3, a known small molecule inhibitor of the p53-MDM2 interaction, was given at 10 μg/ml as a positive control. Briefly, HCT116 cells (10,000/well) were plated overnight in McCoy's 5A modified medium (1×) supplemented with 1% pen-strep and 10% heat inactivated FBS. SW480 cells (10,000/well) were plated overnight in DMEM 1× medium, 1% pen-strep and 10% heat inactivated FBS (all reagents were from GIBCO). Cells were treated the next day with the indicated compound and then OD and cell count assessed after 3 days (left column) or peptides were added every day for three day and then OD and cell count were assessed (right column). OD was measured with the MTS kit (Cell titer 96 aqueous non-radioactive cell proliferation assay, Promega). Trypan blue incorporation was used to determine number of cells alive and dead.

[1] = system: p53 wild type HCT116 cells; assay: Tumor cell killing, MTS OD and Trypan blue cell count, HCT116; conditions: for reduction in HCT116 cell count: HCT116, added daily for three days; for reduction in cell viability as measured by MTS OD / reduction in cell number (Trypan blue cell count): HCT116, single dose, peptides 100 μg/ml, Nutlin-3 10 μg/ml; for reduction in cell viability as measured by MTS OD: after 3 days; for reduction in cell number (Trypan blue cell count): assessed after 3 days
Protocol: as §1

[2] = target: T2, synMDMX (synthetic MDMX, amino acids 24-108 of the full length MDMX protein) (Homo sapiens, UniProt O15151); assay: SPR-based competition binding assay, synMDMX vs immobilized 15-29p53; conditions: stoppin-1 relative to 15-29p53
T2 construct: synthetic MDMX—comprising amino acids 24-108 of the full length MDMX protein; made in house; host or cells: chemical synthesis (no expression host)
T2 sequence (O15151 24-108): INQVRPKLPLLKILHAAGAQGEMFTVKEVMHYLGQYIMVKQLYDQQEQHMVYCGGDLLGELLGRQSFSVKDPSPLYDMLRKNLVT
Protocol: Each curve is the mean of four independent measurements at 25° C. in 10 mM HEPES, 150 mM NaCl, 0.005% surfactant P20, pH 7.4. […] Specifically, ^(15-29)p53 was immobilized on a CM5 sensor chip for kinectic analysis of a fixed concentration of ^synMDM2 (50 nM) or ^synMDMX (100 nM) pre-incubated with varying concentrations of stoppin-1 at room temperature. ^(15-29)p53 was used as a control in the competition binding assay. […] To facilitate comparison, several other compounds were included in the panel: ^(15-29)p53, ^(17-28)p53, and Nutlin-3 (a racemic mixture of Nutlin-3a and Nutlin-3b).

Compound: CYSFDCLWKCLAMGFRRGKCRRRKCKC [stoppin-2]
- shift of Trp fluorescence maximum on addition of synMDM2 (from-to) (synMDM2): 356 nm to 328 nm
- effect against SW480 (p53 mutated SW480 cells): ineffective
- reduction in HCT116 cell count [1]: killed the cells quantitatively
- reduction in cell viability as measured by MTS OD [1]: reduction in HTC cell viability
- reduction in cell number (Trypan blue cell count) [1]: ~70%

Compound: COc1ccc(C2=N[C@@H](c3ccc(Cl)cc3)[C@@H](c3ccc(Cl)cc3)N2C(=O)N2CCNC(=O)C2)c(OC(C)C)c1 [Nutlin-3, reference compound]
- effect against SW480 (p53 mutated SW480 cells): ineffective
- reduction in HCT116 cell count [1]: ~90%
- reduction in cell viability as measured by MTS OD [1]: reduction in HTC cell viability
- reduction in cell number (Trypan blue cell count) [1]: over 80%

Compound: CC[C@H](C)[C@@H]1NC(=O)[C@@H]2CSSC[C@H](N)C(=O)N[C@@H](Cc3ccc(O)cc3)C(=O)N[C@@H](CO)C(=O)N[C@@H](Cc3ccccc3)C(=O)N[C@@H](CC(=O)O)C(=O)N[C@H]3CSSC[C@H](NC(=O)[C@H](CCCCN)NC(=O)[C@H](CO)NC(=O)[C@H](CC(N)=O)NC1=O)C(=O)N[C@@H](CCCCN)C(=O)N[C@H](C(=O)O)CSSC[C@H](NC(=O)[C@H](CCCCN)NC(=O)[C@H](Cc1c[nH]c4ccccc14)NC(=O)[C@H](CC(C)C)NC3=O)C(=O)N[C@@H](CC(C)C)C(=O)N[C@@H](C)C(=O)N[C@@H](CCSC)C(=O)NCC(=O)N[C@@H](Cc1ccccc1)C(=O)N[C@@H](CO)C(=O)N[C@@H](CO)C(=O)NCC(=O)N[C@@H](CCCCN)C(=O)N2 [stoppin-1] (H-CYSFDCLWKCLAMGFSSGKCINSKCKC-OH; disulfide 1-20, 6-25, 10-27)
- fold lower binding affinity for synMDMX than 15-29p53 [2]: approximately 4 fold
- shift of Trp fluorescence maximum on addition of synMDM2 (from-to) (synMDM2): 356 nm to 328 nm
- shift of Trp fluorescence on addition of synMDM2 (synMDM2; from 356 nm to 328 nm): 28 nm
- effect against SW480 (p53 mutated SW480 cells): ineffective
- reduction in cell number (Trypan blue cell count) [1]: minimal
